Patent US20080261895A1 (Wyeth, priority 2006, published 2008)
Values joined by “and” are separate entries in the source; they are usually repeats but may differ in a detail not shown here. Equal values may be shown once.

Columns and labels:
[1] = Whole blood and plasma radioactivity and partitioning after single oral [14C]DVS, rats; format: in vivo, Sprague Dawley rats; settings: single oral 20 mg/kg; for Radioactivity in Plasma, Individual Rats / Radioactivity in Plasma, Mean ± S.D. / Radioactivity in Whole Blood, Individual Rats: listed as [^14C]DVS, 20 mg/kg
Source text: Sprague Dawley rats (12 male and 6 female), weighing between 0.311 and 0.345 kg for males and between 0.263 and 0.311 kg for females at the time of dosing, were used. Animals were given food and water ad libitum. For ease of reporting, the animals were designated numbers 001M through 012M for the male rats and 001F through 006F for the female rats. Three animals from the last time point, for each sex, were housed individually in metabolism cages for the collection of urine and feces. The other animals were housed individually in standard cages.
The oral dosing solution was prepared by combining 86.4 mL of 3.0 mg/mL (2.0 mg/mL, free base) unlabeled DVS solution with 3.6 mL of 4.3 mg/mL (3.0 mg/mL free base) [^14C]DVS solution. Solutions were prepared in 0.25% polysorbate 80, 0.5% methylcellulose in water. The radiochemical purity, specific activity and concentration of [^14C]DVS (bulk drug and dosing solution) were determined using HPLC with radiometric detection. Aliquots of the dosing solution were taken pre-, mid-, and post-dose for the determination of specific activity and radioactivity concentrations of dosing solution.
Whole blood (approximately 5 mL) was collected by cardiac puncture into heparinized tubes at the appropriate time points (1, 4, 8, and 24 hours for male rats, and 1 and 8 hours for female rats, N=3 for each sex at each time point). Triplicate aliquots (200 μL) of whole blood were placed into combusto-cones, weighed and allowed to air dry. These samples were oxidized. The remaining blood was centrifuged at 5000×g and 4° C. for 10 minutes (Model Legend RT centrifuge, Sorvall). The resulting plasma was transferred to fresh tubes and triplicate aliquots (100 μL) were analyzed for radioactivity content. The remaining plasma was stored at −70° C. until metabolite analysis.
Blood samples and fecal homogenates were oxidized in a Model 307 Tri-Carb sample oxidizer, using Carbosorb® E (6 mL) as trapping agent and PermaFluor® E^+ (10 mL) as scintillant. Oxidation efficiency was determined by oxidation of C-Spec-Chec (Perkin Elmer), a standard of known radioactivity, and determined to be 98.7%. The background reading (average of control blood or fecal samples) was subtracted from each sample reading. Aliquots of urine and plasma were analyzed directly following the addition of 10 mL of Ultima Gold™ scintillation fluid.
All radioactivity determinations were made using a Tri-Carb Model 3100TR liquid scintillation counter (Perkin Elmer) with an Ultima Gold™ or toluene standard curve. Counts per minute (CPM) were converted to disintegrations per minute (DPM) by use of external standards of known radioactivity. The quench of each standard was determined by the transformed spectral index of an external radioactive standard (tSIE). The lower limits of detection were defined as twice background.

[2] = Urinary excretion and metabolite profile by radiochromatography, rats; format: in vivo, Sprague Dawley rats; settings: for Compounds Detected by Radiochromatography in urine (Mean ± S.D., n = 3), percent of total peaks / Radioactivity as % of Dose in urine, Mean ± S.D. / Radioactivity as % of Dose in urine, Individuals: single oral 20 mg/kg; for Radioactivity as % of Dose in urine, Individuals: listed as [^14C]DVS, 20 mg/kg
Protocol: Urine and feces were collected separately on dry ice from three animals per sex. Collections were from 0-8 and 8-24 hours for male rats and 0-8 hours for female rats. Fecal samples were homogenized in approximately five volumes (v/w) of water. Aliquots of approximately 0.4 grams of the homogenate were placed into combusto-cones, weighed and allowed to air dry. These samples were then oxidized. The remaining urine samples and fecal homogenates were stored at −70° C. until metabolite analysis.
All urine samples were analyzed for metabolite profiles. Aliquots of 0.5 mL urine were centrifuged at 3500 rpm and 4° C. in a Sorvall Super 21 centrifuge for 10 minutes. The supernatant was transferred to a fresh tube and analyzed for radioactivity content and by HPLC for profiling. Selected samples were also analyzed by LC/MS to characterize the radioactive peaks.
Chromatographic analyses were performed with a Waters Alliance model 2690 HPLC system (Waters Corp., Milford, Mass.). It was equipped with a built-in autosampler and was in-line with a model 2487 tunable UV detector, set to monitor 225 nm, and a FloOne β Model 525 radioactivity flow detector (Perkin Elmer) with a 250 μL LQTR flow cell. The flow rate of Ultima Flow M scintillation fluid was 1 mL/min, providing a mixing ratio of scintillation cocktail to mobile phase of 5:1. Separation of the metabolite peaks was accomplished on a Phenomenex Luna C18(2) column, 150×2.0 mm, 5 micron (Phenomenex, Torrance, Calif.), using a linear gradient of two mobile phases, A and B. Mobile phase A was 10 mM ammonium acetate, pH 6.0, and mobile phase B was acetonitrile. The flow rate was 0.2 mL/min.

Radioactivity in Whole Blood, Mean ± S.D. ([1]; 1 hr, female): 6.18 ± 0.74 μg equivalents/mL | Radioactivity in Whole Blood, Mean ± S.D. ([1]; 1 hr, male): 6.87 ± 1.50 μg equivalents/mL | Radioactivity in Whole Blood, Mean ± S.D. ([1]; 4 hr, male): 0.88 ± 0.12 μg equivalents/mL | Radioactivity in Whole Blood, Mean ± S.D. ([1]; 8 hr, female): 0.58 ± 0.07 μg equivalents/mL | Radioactivity in Whole Blood, Mean ± S.D. ([1]; 8 hr, male): 0.59 ± 0.18 μg equivalents/mL | Radioactivity in Whole Blood, Mean ± S.D. ([1]; 24 hr, male): 0.07 ± 0.01 μg equivalents/mL | Compounds Detected by Radiochromatography in urine (Mean ± S.D., n = 3), percent of total peaks ([2]; 0-8 hr, female): 20.0 ± 3.5% | Radioactivity as % of Dose in urine, Mean ± S.D. ([2]; 0-8 hr, female): 54.5 ± 12% | Radioactivity as % of Dose in urine, Individuals ([2]; 0-8 hr, female): 53.8% and 42.7% and 67.1% | Compounds Detected by Radiochromatography in urine (Mean ± S.D., n = 3), percent of total peaks ([2]; 0-8 hr, male): 10.9 ± 2.1% | Radioactivity as % of Dose in urine, Mean ± S.D. ([2]; 0-8 hr, male): 59.1 ± 7.9% | Radioactivity as % of Dose in urine, Individuals ([2]; 0-8 hr, male): 60.1% and 50.7% and 66.5% | Compounds Detected by Radiochromatography in urine (Mean ± S.D., n = 3), percent of total peaks ([2]; 8-24 hr, male): 9.1 ± 1.1% | Radioactivity as % of Dose in urine, Mean ± S.D. ([2]; 8-24 hr, male): 25.5 ± 6.4% | Radioactivity as % of Dose in urine, Individuals ([2]; 8-24 hr, male): 24.6% and 32.3% and 19.7% | % of the radioactive dose recovered in urine ([2]; within 24 hours post-dose): 85% | % of the radioactive dose recovered in urine ([2]; within the first 8 hours post-dose): greater than 50%
Structure (SMILES): CN(C)CC(c1ccc(O)cc1)C1(O)CCCCC1.O=C(O)CCC(=O)O (centres unmarked) [DVS, O-desmethylvenlafaxine succinate]
Radioactivity in Plasma, Individual Rats ([1]; 1 hr, female): 9.61 μg equivalents/mL and 8.74 μg equivalents/mL and 11.3 μg equivalents/mL | Radioactivity in Plasma, Mean ± S.D. ([1]; 1 hr, female): 9.90 μg equivalents/mL and 9.90 ± 1.2 μg equivalents/mL | Radioactivity in Whole Blood, Individual Rats ([1]; 1 hr, female): 5.63 μg equivalents/mL and 5.76 μg equivalents/mL and 7.15 μg equivalents/mL | Radioactivity in Plasma, Individual Rats ([1]; 1 hr, male): 10.4 μg equivalents/mL and 8.90 μg equivalents/mL and 13.7 μg equivalents/mL | Radioactivity in Plasma, Mean ± S.D. ([1]; 1 hr, male): 11.0 μg equivalents/mL and 11.0 ± 2.2 μg equivalents/mL | Radioactivity in Whole Blood, Individual Rats ([1]; 1 hr, male): 6.11 μg equivalents/mL and 5.66 μg equivalents/mL and 8.85 μg equivalents/mL | Radioactivity in Plasma, Individual Rats ([1]; 4 hr, male): 1.59 μg equivalents/mL and 1.62 μg equivalents/mL and 1.22 μg equivalents/mL | Radioactivity in Plasma, Mean ± S.D. ([1]; 4 hr, male): 1.48 μg equivalents/mL and 1.48 ± 0.20 μg equivalents/mL | Radioactivity in Whole Blood, Individual Rats ([1]; 4 hr, male): 0.95 μg equivalents/mL and 0.96 μg equivalents/mL and 0.72 μg equivalents/mL | Radioactivity in Plasma, Individual Rats ([1]; 8 hr, female): 0.86 μg equivalents/mL and 0.82 μg equivalents/mL and 1.08 μg equivalents/mL | Radioactivity in Plasma, Mean ± S.D. ([1]; 8 hr, female): 0.92 μg equivalents/mL and 0.92 ± 0.12 μg equivalents/mL | Radioactivity in Whole Blood, Individual Rats ([1]; 8 hr, female): 0.59 μg equivalents/mL and 0.50 μg equivalents/mL and 0.66 μg equivalents/mL | Radioactivity in Plasma, Individual Rats ([1]; 8 hr, male): 0.53 μg equivalents/mL and 1.10 μg equivalents/mL and 1.05 μg equivalents/mL | Radioactivity in Plasma, Mean ± S.D. ([1]; 8 hr, male): 0.89 μg equivalents/mL and 0.89 ± 0.27 μg equivalents/mL | Radioactivity in Whole Blood, Individual Rats ([1]; 8 hr, male): 0.35 μg equivalents/mL and 0.71 μg equivalents/mL (2×) | Radioactivity in Plasma, Individual Rats ([1]; 24 hr, male): 0.07 μg equivalents/mL and 0.08 μg equivalents/mL and 0.05 μg equivalents/mL | Radioactivity in Plasma, Mean ± S.D. ([1]; 24 hr, male): 0.07 μg equivalents/mL and 0.07 ± 0.01 μg equivalents/mL | Radioactivity in Whole Blood, Individual Rats ([1]; 24 hr, male): 0.06 μg equivalents/mL and 0.08 μg equivalents/mL and 0.05 μg equivalents/mL
